Key:
[1] = target: T1, TDO (A172 human glioblastoma cells) (Homo sapiens, UniProt P48775); experiment: A172 Kynurenine cell based assay; conditions: 500 μM L-tryptophan, 48 hours, kynurenine by Erhlich's reagent
T1 construct: This assay utilised cancer cells which expressed either TDO or IDO; endogenous in cells; host or cells: A172 human glioblastoma cells
Experimental: (§1) Exemplary compounds of the invention were prepared, and tested to determine their effect as TDO and/or IDO inhibitors. Two different assays were employed: 1. a cell-based assay for detecting the effect of test compounds on kynurenine production in two different cancer cell types. This assay utilised cancer cells which expressed either TDO or IDO and as such was used as a means of testing compound activity at these two enzymes in a cell-based context. 2. a TDO and IDO biochemical coupled assay which utilised recombinantly produced and purified TDO and IDO enzymes in combination with the enzyme formamidase. This coupled enzyme system allowed conversion of N-formylkynurenine produced by TDO or IDO activity to kynurenine which was then quantified by fluorescence following addition of Erhlich's Reagent The protocols for these are set out below.
(§2) A172 (human glioblastoma) and SKOV3 (human ovarian adenocarcinoma) cells were seeded in a 96 well plate at 30,000 or 40,000 cells per well respectively in phenol red-free RPMI supplemented with 10% FCS, 2 mM L-glutamine and 500 μM L-tryptophan. IDO expression was induced in the SKOV3 cells by the addition of 500 ng/ml IFN-γ. Cells were incubated at 37° C. with or without the addition of test compound. After 48 hours, the cells were removed by centrifugation and Erhlich's reagent was added to the supernatant. The Erhlich's reagent was incubated for 5 minutes before the absorbance was read at 490 nm.

[2] = target: T2, IDO (SKOV3 human ovarian adenocarcinoma cells, IFN-γ induced) (Homo sapiens, UniProt P14902); experiment: SKOV3 Kynurenine cell based assay; conditions: IDO induced by 500 ng/ml IFN-γ, 500 μM L-tryptophan, 48 hours
T2 construct: IDO expression was induced in the SKOV3 cells by the addition of 500 ng/ml IFN-γ; endogenous in cells; host or cells: SKOV3 human ovarian adenocarcinoma cells, induced with IFN-γ
Experimental: as §1
as §2, with “supernatant.” for “supernatant. The Erhlich's reagent was incubated for 5 minutes before the absorbance was read at 490 nm.”

T1 sequence (P48775 whole entry): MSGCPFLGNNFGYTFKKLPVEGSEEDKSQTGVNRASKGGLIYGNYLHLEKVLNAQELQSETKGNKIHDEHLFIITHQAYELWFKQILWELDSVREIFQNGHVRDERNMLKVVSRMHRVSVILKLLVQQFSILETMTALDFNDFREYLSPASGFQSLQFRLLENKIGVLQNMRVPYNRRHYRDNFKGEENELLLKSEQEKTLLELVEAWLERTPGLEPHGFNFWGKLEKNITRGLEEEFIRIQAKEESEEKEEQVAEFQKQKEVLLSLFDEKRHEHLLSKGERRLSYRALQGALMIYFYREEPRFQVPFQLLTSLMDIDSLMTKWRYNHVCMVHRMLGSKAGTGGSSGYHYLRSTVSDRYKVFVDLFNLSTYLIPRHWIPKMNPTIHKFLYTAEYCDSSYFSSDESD
T2 sequence (P14902 whole entry): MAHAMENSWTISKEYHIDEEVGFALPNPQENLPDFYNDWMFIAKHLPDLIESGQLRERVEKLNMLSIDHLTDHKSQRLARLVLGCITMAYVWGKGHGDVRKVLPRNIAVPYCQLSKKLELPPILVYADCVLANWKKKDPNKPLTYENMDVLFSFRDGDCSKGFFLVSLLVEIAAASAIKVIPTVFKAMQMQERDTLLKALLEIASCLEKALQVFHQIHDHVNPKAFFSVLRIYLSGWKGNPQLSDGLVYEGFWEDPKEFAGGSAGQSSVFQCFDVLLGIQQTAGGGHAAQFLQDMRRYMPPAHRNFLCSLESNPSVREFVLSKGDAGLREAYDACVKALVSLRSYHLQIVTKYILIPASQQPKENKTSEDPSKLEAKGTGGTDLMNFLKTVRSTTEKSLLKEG

Row | A172 Kynurenine cell based assay pIC50 [1] | SKOV3 Kynurenine cell based assay pIC50 [2] | Structure (SMILES)
1 | + (+ = pIC50 4.00-4.99) | + (+ = pIC50 4.00-4.99) | CC(=O)N1CCC(c2c[nH]c3cnccc23)CC1 [Compound 203]
2 | + (+ = pIC50 4.00-4.99) | + (+ = pIC50 4.00-4.99) | Cc1ccc2c(C3CCN(S(C)(=O)=O)CC3)c[nH]c2c1 [Compound 207]
3 | + (+ = pIC50 4.00-4.99) | + (+ = pIC50 4.00-4.99) | CC(=O)N1CCC(c2c[nH]c3ccc(OCc4ccccc4)cc23)CC1 [Compound 208]
4 | + (+ = pIC50 4.00-4.99) | + (+ = pIC50 4.00-4.99) | O=S(=O)(N1CCCC1)N1CCC(c2c[nH]c3ccccc23)CC1 [Compound 213]
5 | ++ (++ = pIC50 5.00-5.99) | + (+ = pIC50 4.00-4.99) | CS(=O)(=O)N1CC=C(c2c[nH]c3cc(F)cc(F)c23)CC1 [Compound 215]
6 | + (+ = pIC50 4.00-4.99) | + (+ = pIC50 4.00-4.99) | CCN(CC)S(=O)(=O)N1CCC(c2c[nH]c3ccccc23)CC1 [Compound 217]
7 | + (+ = pIC50 4.00-4.99) | + (+ = pIC50 4.00-4.99) | CC(=O)N1CCC(c2c[nH]c3cc(OCc4ccccc4)ccc23)CC1 [Compound 221]
8 | + (+ = pIC50 4.00-4.99) | + (+ = pIC50 4.00-4.99) | CC(=O)N1CC=C(c2c[nH]c3cc(C(F)(F)F)ccc23)CC1 [Compound 223]
9 | + (+ = pIC50 4.00-4.99) | + (+ = pIC50 4.00-4.99) | CC(=O)N1CC=C(c2c[nH]c3ccc(C#N)cc23)CC1 [Compound 225]
10 | ++ (++ = pIC50 5.00-5.99) | + (+ = pIC50 4.00-4.99) | CC(=O)N1CC=C(c2c[nH]c3cc(Cl)c(F)cc23)CC1 [Compound 228]
11 | + (+ = pIC50 4.00-4.99) | + (+ = pIC50 4.00-4.99) | CC(=O)N1CC=C(c2c[nH]c3ccc(C(F)(F)F)cc23)CC1 [Compound 229]
12 | + (+ = pIC50 4.00-4.99) | + (+ = pIC50 4.00-4.99) | CC(=O)N1CC=C(c2c[nH]c3c(F)cc(F)cc23)CC1 [Compound 231]
13 | + (+ = pIC50 4.00-4.99) | + (+ = pIC50 4.00-4.99) | CC(=O)N1CCC(c2c[nH]c3cc(C(F)(F)F)ccc23)CC1 [Compound 232]
14 | + (+ = pIC50 4.00-4.99) | + (+ = pIC50 4.00-4.99) | CC(=O)N1CCC(c2c[nH]c3ccc(C#N)cc23)CC1 [Compound 233]
15 | + (+ = pIC50 4.00-4.99) | + (+ = pIC50 4.00-4.99) | CS(=O)(=O)N1CCC(c2c[nH]c3cc(C(F)(F)F)ccc23)CC1 [Compound 234]
16 | + (+ = pIC50 4.00-4.99) | + (+ = pIC50 4.00-4.99) | CC(=O)N1CCC(c2c[nH]c3ccc(Cl)cc23)CC1 [Compound 238]
17 | ++ (++ = pIC50 5.00-5.99) | ++ (++ = pIC50 5.00-5.99) | CS(=O)(=O)N1CCC(c2c[nH]c3ccc(Cl)cc23)CC1 [Compound 239]
18 | + (+ = pIC50 4.00-4.99) | ++ (++ = pIC50 5.00-5.99) | CS(=O)(=O)N1CCC(c2c[nH]c3ccc(C(F)(F)F)cc23)CC1 [Compound 240]
19 | + (+ = pIC50 4.00-4.99) | + (+ = pIC50 4.00-4.99) | CC(=O)N1CCC(c2c[nH]c3ccc(C(F)(F)F)cc23)CC1 [Compound 241]
20 | + (+ = pIC50 4.00-4.99) | + (+ = pIC50 4.00-4.99) | CS(=O)(=O)N1CCC(c2c[nH]c3cc(Cl)c(F)cc23)CC1 [Compound 243]
21 | + (+ = pIC50 4.00-4.99) | + (+ = pIC50 4.00-4.99) | CS(=O)(=O)N1CCC(c2c[nH]c3cc(Cl)ccc23)CC1 [Compound 244]

Row | A172 Kynurenine cell based assay pIC50 [1] | SKOV3 Kynurenine cell based assay pIC50 [2] | Structure (SMILES)
22 | ++ (++ = pIC50 5.00-5.99) | + (+ = pIC50 4.00-4.99) | CC(=O)N1CCC(c2c[nH]c3cc(Cl)ccc23)CC1 [Compound 245]
23 | ++ (++ = pIC50 5.00-5.99) | + (+ = pIC50 4.00-4.99) | CS(=O)(=O)N1CC=C(c2c[nH]c3cc(F)c(Cl)cc23)CC1 [Compound 248]
24 | ++ (++ = pIC50 5.00-5.99) | + (+ = pIC50 4.00-4.99) | CN(C)S(=O)(=O)N1CCC(c2c[nH]c3cc(F)ccc23)CC1 [Compound 250]
25 | + (+ = pIC50 4.00-4.99) | + (+ = pIC50 4.00-4.99) | CC(=O)N1CCC(c2c[nH]c3cc(F)c(Cl)cc23)CC1 [Compound 252]
26 | + (+ = pIC50 4.00-4.99) | + (+ = pIC50 4.00-4.99) | CS(=O)(=O)N1CCC(c2c[nH]c3cc(F)c(Cl)cc23)CC1 [Compound 253]
27 | + (+ = pIC50 4.00-4.99) | + (+ = pIC50 4.00-4.99) | CN(C)CCOc1ccc2c(C3=CCN(S(C)(=O)=O)CC3)c[nH]c2c1 [Compound 254]
28 | ++ (++ = pIC50 5.00-5.99) | + (+ = pIC50 4.00-4.99) | CC(=O)N1CC=C(c2c[nH]c3cc(OCCN(C)C)ccc23)CC1 [Compound 255]
29 | ++ (++ = pIC50 5.00-5.99) | + (+ = pIC50 4.00-4.99) | CCCC(=O)N1CCC(c2c[nH]c3cc(F)ccc23)CC1 [Compound 270]
30 | + (+ = pIC50 4.00-4.99) | + (+ = pIC50 4.00-4.99) | COc1cccc(C(=O)N2CCC(c3c[nH]c4cc(F)ccc34)CC2)n1 [Compound 273]
31 | + (+ = pIC50 4.00-4.99) | + (+ = pIC50 4.00-4.99) | O=C(C1CC(=O)N(C2CCCC2)C1)N1CCC(c2c[nH]c3cc(F)ccc23)CC1 (stereo not drawn) [Compound 276]
32 | + (+ = pIC50 4.00-4.99) | + (+ = pIC50 4.00-4.99) | CCCc1cc(C(=O)N2CCC(c3c[nH]c4cc(F)ccc34)CC2)[nH]n1 [Compound 277]
33 | + (+ = pIC50 4.00-4.99) | + (+ = pIC50 4.00-4.99) | Cn1nc(-c2ccccc2)cc1C(=O)N1CCC(c2c[nH]c3cc(F)ccc23)CC1 [Compound 279]
34 | ++ (++ = pIC50 5.00-5.99) | + (+ = pIC50 4.00-4.99) | CCCn1cc(C(=O)N2CCC(c3c[nH]c4cc(F)ccc34)CC2)c(C)n1 [Compound 280]
35 | + (+ = pIC50 4.00-4.99) | + (+ = pIC50 4.00-4.99) | O=C(N1CCC(c2c[nH]c3cc(F)ccc23)CC1)C1(c2ccccc2)CC1 [Compound 281]
36 | + (+ = pIC50 4.00-4.99) | + (+ = pIC50 4.00-4.99) | COCCN1CC(C(=O)N2CCC(c3c[nH]c4cc(F)ccc34)CC2)CC1=O (stereo not drawn) [Compound 283]
37 | + (+ = pIC50 4.00-4.99) | + (+ = pIC50 4.00-4.99) | O=C(CC1CC1)N1CCC(c2c[nH]c3cc(F)ccc23)CC1 [Compound 284]
38 | ++ (++ = pIC50 5.00-5.99) | + (+ = pIC50 4.00-4.99) | CC(C)S(=O)(=O)N1CCC(c2c[nH]c3cc(F)ccc23)CC1 [Compound 289]
39 | ++ (++ = pIC50 5.00-5.99) | + (+ = pIC50 4.00-4.99) | O=S(=O)(C1CCCC1)N1CCC(c2c[nH]c3cc(F)ccc23)CC1 [Compound 291]
40 | ++ (++ = pIC50 5.00-5.99) | + (+ = pIC50 4.00-4.99) | O=S(=O)(Cc1ccccc1)N1CCC(c2c[nH]c3cc(F)ccc23)CC1 [Compound 293]
41 | ++ (++ = pIC50 5.00-5.99) | + (+ = pIC50 4.00-4.99) | O=S(=O)(N1CCC(c2c[nH]c3cc(F)ccc23)CC1)C(F)(F)F [Compound 296]
42 | ++ (++ = pIC50 5.00-5.99) | + (+ = pIC50 4.00-4.99) | CC(=O)N1CCN(c2c[nH]c3ccccc23)CC1(C)C [Compound 299]

Source: US9931347B2, “Pharmaceutical compound” (IOmet Pharma Ltd., priority 2013, dated 2018)
